Laboratory results from patent US5470854A, “2-phenylbenzo[B]furans, process for their manufacture and pharmaceutical preparations containing them” (Schering Aktiengesellschaft, priority 1991, dated 1995).
Each block holds one compound with its values, some of them ahead of it.

Columns and labels:
[1] = molecular target: T1, oestrogen receptor (Bos taurus, UniProt P49884); assay: Relative bonding affinity to the oestrogen receptor (competition with 3H-17β-Estradiol); assay type: binding, calf; details: for RBA* (relative bonding affinity to the oestrogen receptor): calves' uteri, in relation to 17β-estradiol = 100
T1 construct: oestrogen receptor of a calf's uterus; from tissue; host or cells: calf uterus
T1 sequence (P49884 1-596): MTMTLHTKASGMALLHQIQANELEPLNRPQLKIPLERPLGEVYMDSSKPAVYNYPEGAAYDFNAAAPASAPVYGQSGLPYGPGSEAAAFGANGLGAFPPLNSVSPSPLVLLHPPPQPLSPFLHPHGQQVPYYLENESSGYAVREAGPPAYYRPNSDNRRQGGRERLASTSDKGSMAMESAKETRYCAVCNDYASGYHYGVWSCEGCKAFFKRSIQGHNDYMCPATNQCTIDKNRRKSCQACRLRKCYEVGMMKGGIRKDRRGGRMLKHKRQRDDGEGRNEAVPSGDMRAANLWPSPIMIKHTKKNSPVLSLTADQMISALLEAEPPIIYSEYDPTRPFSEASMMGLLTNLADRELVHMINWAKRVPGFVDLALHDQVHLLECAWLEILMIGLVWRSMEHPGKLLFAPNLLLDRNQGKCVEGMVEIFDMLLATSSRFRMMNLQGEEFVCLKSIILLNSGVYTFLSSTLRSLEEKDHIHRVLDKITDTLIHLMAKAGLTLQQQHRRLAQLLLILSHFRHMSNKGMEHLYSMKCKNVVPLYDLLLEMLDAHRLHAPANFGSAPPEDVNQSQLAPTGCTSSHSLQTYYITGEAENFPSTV
Text: The test methodology is described in Cancer Treatment Reviews 1984, 11, 147.
*Relative bonding affinities to the oestrogen receptor of calves' uteri,
in relation to 17β-estradiol = 100

[2] = test system: human MCF-7 mamma carcinoma cells; assay: Effect on cell growth of MCF-7 cells; assay type: cell-based; details: for activity at 10 µM / activity at 1 µM / activity at 0.1 µM / activity at 5 µM: Homo sapiens, MCF7, mean of 16 individual results, read-out: T/C (corrected); for activity at 10 µM: 1 × 10^-5 M; for activity at 1 µM: 1 × 10^-6 M; for activity at 0.1 µM: 1 × 10^-7 M; for activity at 5 µM: 5 × 10^-6 M
Procedure: Data given as corrected T/C values (%).
^a Inhibiting effect on MCF7 cells: quotient of optical densities fro
standard deviation through error reckoning according to GAUSS.
^b Substance concentration (mol/1) in incubation medium.
^c Significant p < 0.01 in relation to control group (C).

[3] = test system: uterus of infantile mice; assay: Uterotrophic test (in-vivo test on infantile mice); details: uterus dry weight (mg)/body weight (g) × 100
Procedure: (§1) The effectiveness of these compounds was found in an in-vivo test on infantile mice. This test is extensively described in Cancer Treatment Reviews 1984, 11, 147, and J. Med. Chem., 1984, 27, 1439.
(§2) ^a dosage/animal, administered s.c. on three consecutive days in oliv
(§3) ^b uterus dry weight (mg)/body weight (g) × 100, determined 24
(§4) hours after the final injection.

[4] = test system: uterus of infantile mice; assay: Anti-uterotrophic test (in-vivo test on infantile mice); details: simultaneous 0.4 μg oestron/animal/day; for anti-uterotrophic test, effect: uterus dry weight (mg)/body weight (g) × 100
Procedure: as §1, §2, §3, §4
^c simultaneous administration of 0.4 μg oestron/animal/day.

[5] = 1 μg/animal s.c. on three consecutive days
[6] = 5 μg/animal s.c. on three consecutive days
[7] = 25 μg/animal s.c. on three consecutive days
[8] = 125 μg/animal s.c. on three consecutive days

Compound: Cc1c(-c2ccc(O)cc2)sc2ccc(O)cc12 [Compound 102a, 5-hydroxy-2-(4-hydroxypheny)-3-methyibenxo[b]thiophen]
affinity to the oestrogen (estradiol) receptor, in words [1]: greatest affinity in relation to estradiol
RBA* (relative bonding affinity to the oestrogen receptor) [1]: 26,0
effect on the growth of MCF-7 / hormone-dependent tumour cells, in words [2]: strongly inhibiting effect
activity at 10 µM [2]: 14.7 ± 6.4%
activity at 1 µM [2]: 87.4 ± 20%
activity at 0.1 µM [2]: 71.3 ± 18.8%
activity at 5 µM [2]: 48.5 ± 14.7%
uterotrophic test, effect [3, 5]: 15.8 ± 2.1 mg/g × 100
uterotrophic test, effect [3, 6]: 20.8 ± 2.7 mg/g × 100
uterotrophic test, effect [3, 7]: 15.7 ± 2.3 mg/g × 100
uterotrophic test, effect [3, 8]: 18.5 ± 3.0 mg/g × 100
anti-uterotrophic test, inhibition ([4]; 5 μg/animal s.c.): 12%
anti-uterotrophic test, inhibition ([4]; 25 μg/animal s.c.): 68%
anti-uterotrophic test, inhibition ([4]; 125 μg/animal s.c.): 42%
anti-uterotrophic test, effect ([4]; 5 μg/animal s.c.): 42.4 ± 4.0 mg/g × 100
anti-uterotrophic test, effect ([4]; 25 μg/animal s.c.): 23.1 ± 3.8 mg/g × 100
anti-uterotrophic test, effect ([4]; 125 μg/animal s.c.): 32.2 ± 3.8 mg/g × 100

Compound: CCCc1c(-c2ccc(O)cc2)sc2ccc(O)cc12 [Compound 106a, 5-hydroxy-2-(4-hydroxyphenyl)-3-propylbenzo[b]thiophen]
affinity to the oestrogen (estradiol) receptor, in words [1]: greatest affinity in relation to estradiol
RBA* (relative bonding affinity to the oestrogen receptor) [1]: 21,9
effect on the growth of MCF-7 / hormone-dependent tumour cells, in words [2]: strongly inhibiting effect
activity at 10 µM [2]: 0.3 ± 3.5%
activity at 1 µM [2]: 35 ± 10.4%
activity at 0.1 µM [2]: 77.1 ± 21.4%
activity at 5 µM [2]: 2.3 ± 4.1%
uterotrophic test, effect [3, 5]: 25.4 ± 6.2 mg/g × 100
uterotrophic test, effect [3, 6]: 32.7 ± 5.0 mg/g × 100
uterotrophic test, effect [3, 7]: 35.3 ± 7.5 mg/g × 100
uterotrophic test, effect [3, 8]: 51.2 ± 9.9 mg/g × 100
anti-uterotrophic test, inhibition ([4]; 5 μg/animal s.c.): 27%
anti-uterotrophic test, effect ([4]; 5 μg/animal s.c.): 34.4 ± 7.1 mg/g × 100
anti-uterotrophic test, effect ([4]; 25 μg/animal s.c.): 48.0 ± 4.2 mg/g × 100
anti-uterotrophic test, effect ([4]; 125 μg/animal s.c.): 48.8 ± 4.1 mg/g × 100

Now from value to compound, other results behind:

RBA* (relative bonding affinity to the oestrogen receptor) [1]: 9,7
Compound: Cc1c(-c2ccc(O)cc2)sc2cc(O)ccc12 [Compound 102b, 6-hydroxy-2-(4-hydroxyphenyl)-3-methylbenzo[b]thiophen]
effect on the growth of MCF-7 / hormone-dependent tumour cells, in words [2]: strongly inhibiting effect
activity at 10 µM [2]: 10.9 ± 6.7%
activity at 1 µM [2]: 133 ± 43.4%
activity at 0.1 µM [2]: 125 ± 37.2%
activity at 5 µM [2]: 54.9 ± 17.9%
uterotrophic test, effect [3, 5]: 10.9 ± 2.1 mg/g × 100
uterotrophic test, effect [3, 6]: 12.1 ± 1.9 mg/g × 100
uterotrophic test, effect [3, 7]: 16.9 ± 2.9 mg/g × 100
uterotrophic test, effect [3, 8]: 21.9 ± 4.6 mg/g × 100
anti-uterotrophic test, inhibition ([4]; 5 μg/animal s.c.): 7%
anti-uterotrophic test, inhibition ([4]; 25 μg/animal s.c.): 30%
anti-uterotrophic test, inhibition ([4]; 125 μg/animal s.c.): 31%
anti-uterotrophic test, effect ([4]; 5 μg/animal s.c.): 47.0 ± 7.8 mg/g × 100
anti-uterotrophic test, effect ([4]; 25 μg/animal s.c.): 38.5 ± 3.7 mg/g × 100
anti-uterotrophic test, effect ([4]; 125 μg/animal s.c.): 38.1 ± 5.8 mg/g × 100

RBA* (relative bonding affinity to the oestrogen receptor) [1]: 27,6
Compound: CCc1c(-c2ccc(O)cc2)sc2cc(O)ccc12 [Compound 104b, 3-ethyl-6-hydroxy-2-(4-hydroxyphenyl)benzo[b]thiophen]
affinity to the oestrogen (estradiol) receptor, in words [1]: greatest affinity in relation to estradiol
effect on the growth of MCF-7 / hormone-dependent tumour cells, in words [2]: strongly inhibiting effect
activity at 10 µM [2]: 4.2 ± 6%
activity at 1 µM [2]: 91.9 ± 21.2%
activity at 0.1 µM [2]: 94 ± 21.2%
activity at 5 µM [2]: 5.7 ± 5.8%
uterotrophic test, effect [3, 5]: 18.0 ± 4.0 mg/g × 100
uterotrophic test, effect [3, 6]: 22.7 ± 5.9 mg/g × 100
uterotrophic test, effect [3, 7]: 29.3 ± 4.5 mg/g × 100
uterotrophic test, effect [3, 8]: 39.9 ± 6.1 mg/g × 100
anti-uterotrophic test, inhibition ([4]; 5 μg/animal s.c.): 32%
anti-uterotrophic test, inhibition ([4]; 25 μg/animal s.c.): 33%
anti-uterotrophic test, inhibition ([4]; 125 μg/animal s.c.): 31%
anti-uterotrophic test, effect ([4]; 5 μg/animal s.c.): 37.9 ± 6.9 mg/g × 100
anti-uterotrophic test, effect ([4]; 25 μg/animal s.c.): 37.3 ± 4.2 mg/g × 100
anti-uterotrophic test, effect ([4]; 125 μg/animal s.c.): 38.0 ± 5.4 mg/g × 100

RBA* (relative bonding affinity to the oestrogen receptor) [1]: 25,1
Compound: CCCc1c(-c2ccc(O)cc2)sc2cc(O)ccc12 [Compound 106b, 6-hydroxy-2-(4-hydroxyphenyl)-3-propylbenzo[b]thiophen]
affinity to the oestrogen (estradiol) receptor, in words [1]: greatest affinity in relation to estradiol
effect on the growth of MCF-7 / hormone-dependent tumour cells, in words [2]: strongly inhibiting effect
activity at 10 µM [2]: 1.8 ± 3.1%
activity at 1 µM [2]: 69 ± 15.1%
activity at 0.1 µM [2]: 81.7 ± 17.5%
activity at 5 µM [2]: 3.6 ± 3%
uterotrophic test, effect [3, 5]: 16.6 ± 4.6 mg/g × 100
uterotrophic test, effect [3, 6]: 22.4 ± 3.1 mg/g × 100
uterotrophic test, effect [3, 7]: 24.5 ± 4.8 mg/g × 100
uterotrophic test, effect [3, 8]: 35.1 ± 4.9 mg/g × 100
anti-uterotrophic test, inhibition ([4]; 5 μg/animal s.c.): 34%
anti-uterotrophic test, inhibition ([4]; 25 μg/animal s.c.): 39%
anti-uterotrophic test, inhibition ([4]; 125 μg/animal s.c.): 40%
anti-uterotrophic test, effect ([4]; 5 μg/animal s.c.): 37.0 ± 6.5 mg/g × 100
anti-uterotrophic test, effect ([4]; 25 μg/animal s.c.): 35.3 ± 6.7 mg/g × 100
anti-uterotrophic test, effect ([4]; 125 μg/animal s.c.): 34.8 ± 6.2 mg/g × 100
